4 compounds from patent US20210355121A1, “FUSED TRICYCLIC KRAS INHIBITORS” (Incyte Corporation, priority 2020, published 2021) can be followed below.

What is called pIC50 is −log10 of the IC50, conventionally taken in molar units.

The target in experiment [1] is KRAS G12D (Homo sapiens, UniProt P01116, G12D). The experiment is described as follows: KRAS G12D GDP-GTP exchange assay (bodipy-GDP for GppNHp, with SOS1). The conditions noted are these: 2.5 nM bodipy loaded KRAS G12D, 4 hours after GppNHp-SOS1; read-out: G12D_exchange (KRAS_G12D exchange assay IC50). Type of experiment: biochemical. How it is done:
(§1) The inhibitor potency of the exemplified compounds was determined in a fluorescence based guanine nucleotide exchange assay, which measures the exchange of bodipy-GDP (fluorescently labeled GDP) for GppNHp (Non-hydrolyzable GTP analog) to generate the active state of KRAS in the presence of SOS1 (guanine nucleotide exchange factor). Inhibitors were serially diluted in DMSO and a volume of 0.1 μL was transferred to the wells of a black low volume 384-well plate. 5 μL/well volume of bodipy-loaded KRAS G12C diluted to 5 nM in assay buffer (25 mM Hepes pH 7.5, 50 mM NaCl, 10 mM MgCl2 and 0.01% Brij-35) was added to the plate and pre-incubated with inhibitor for 2 hours at ambient temperature. Appropriate controls (enzyme with no inhibitor or with a G12C inhibitor (AMG-510)) were included on the plate. The exchange was initiated by the addition of a 5 μL/well volume containing 1 mM GppNHp and 300 nM SOS1 in assay buffer. The 10 μL/well reaction concentration of the bodipy-loaded KRAS G12C, GppNHp, and SOS1 were 2.5 nM, 500 uM, and 150 nM, respectively. The reaction plates were incubated at ambient temperature for 2 hours, a time estimated for complete GDP-GTP exchange in the absence of inhibitor. For the KRAS G12D and G12V mutants, similar guanine nucleotide exchange assays were used with 2.5 nM as final concentration for the bodipy loaded KRAS proteins and with 4 hours and 3 hours incubation after adding GppNHp-SOS1 mixture for G12D and G12V respectively. A cyclic peptide described to selectively bind G12D mutant (Sakamoto et al., BBRC 484.3 (2017), 605-611) or internal compounds with confirmed binding were used as positive controls in the assay plates. Fluorescence intensities were measured on a PheraStar plate reader instrument (BMG Labtech) with excitation at 485 nm and emission at 520 nm.
(§2) Either GraphPad prism or XLfit was used to analyze the data. The IC50 values were derived by fitting the data to a four parameter logistic equation producing a sigmoidal dose-response curve with a variable Hill coefficient. Prism equation: Y=Bottom+(Top−Bottom)/(1+10^((Log IC50−X)*Hill slope)); XLfit equation: Y=(A+((B−A)/(1+((X/C)^D)))) where X is the logarithm of inhibitor concentration and Y is the response.

Experiment [2] addresses KRAS G12V (Homo sapiens, UniProt P01116, G12V). The experiment is described as follows: KRAS G12V GDP-GTP exchange assay (bodipy-GDP for GppNHp, with SOS1). Format: biochemical. The conditions noted are these: 2.5 nM bodipy loaded KRAS G12V, 3 hours after GppNHp-SOS1; read-out: G12V_exchange (KRAS_G12V exchange assay IC50). The procedure: as §1, §2

pIC50: −log10 of the molar value.

Chain of KRAS G12V (P01116 1-188 isoform P01116-2 G12V): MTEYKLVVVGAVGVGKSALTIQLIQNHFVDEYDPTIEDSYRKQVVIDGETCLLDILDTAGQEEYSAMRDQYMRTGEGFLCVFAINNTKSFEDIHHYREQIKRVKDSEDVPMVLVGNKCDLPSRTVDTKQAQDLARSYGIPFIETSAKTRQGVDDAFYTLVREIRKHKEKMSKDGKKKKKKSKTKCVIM
Chain of KRAS G12D (P01116 1-188 isoform P01116-2 G12D): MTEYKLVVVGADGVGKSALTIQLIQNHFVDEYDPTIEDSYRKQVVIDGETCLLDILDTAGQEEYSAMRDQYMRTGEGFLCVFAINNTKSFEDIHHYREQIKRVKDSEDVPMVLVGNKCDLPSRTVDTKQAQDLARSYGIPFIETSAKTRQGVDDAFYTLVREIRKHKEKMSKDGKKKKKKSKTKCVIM

For the compound `CN1CCC[C@H]1COc1nc2c(F)c(-c3cc(O)cc4ccccc34)c(CCC#N)cc2c2c1c(C(=O)NCc1ccccc1)cn2C1C2CNC1C2` (stereo partly drawn) [Example 45, N-Benzyl-1-(2-azabicyclo[2.1.1]hexan-5-yl)-8-(2-cyanoethyl)-6-fluoro-7-(3-hydroxynaphthalen-1-yl)-4-(((S)-1-methylpyrrolidin-2-yl)methoxy)-1H-pyrrolo[3,2-c]quinoline-3-carboxamide], the pIC50 in experiment [1] was at least 7.00; in experiment [2], 6.00 to 7.00.
The matching figures for `CCOc1nc2c(F)c(-c3cc(O)cc4ccccc34)c(CCC#N)cc2c2c1cc(CCC(=O)N(C)C)n2[C@H]1[C@H]2CN[C@@H]1C2` [Example 48, 3-(1-((1R,4R,5S)-2-azabicyclo[2.1.1]hexan-5-yl)-8-(2-cyanoethyl)-4-ethoxy-6-fluoro-7-(3-hydroxynaphthalen-1-yl)-1H-pyrrolo[3,2-c]quinolin-2-yl)-N,N-dimethylpropanamide]: at least 7.00 and at least 7.00.
`CN1CCC[C@H]1COc1nc2c(F)c(-c3cc(O)cc4ccccc34)c(CCC#N)cc2c2c1c(-c1cn[nH]c1)cn2C1C2CNC1C2` (stereo partly drawn) [Example 41, 3-(1-(2-azabicyclo[2.1.1]hexan-5-yl)-6-fluoro-7-(3-hydroxynaphthalen-1-yl)-4-(((S)-1-methylpyrrolidin-2-yl)methoxy)-3-(1H-pyrazol-4-yl)-1H-pyrrolo[3,2-c]quinolin-8-yl)propanenitrile]: the pIC50 in experiment [1] and in experiment [2] was at least 7.00 throughout.
Consider `CN1CCC[C@H]1COc1nc2c(F)c(-c3cc(O)cc4ccccc34)c(CCC#N)cc2c2c1ccn2C1C2CNC1C2` (stereo partly drawn) [Example 33, 3-(1-(2-azabicyclo[2.1.1]hexan-5-yl)-6-fluoro-7-(3-hydroxynaphthalen-1-yl)-4-(((S)-1-methylpyrrolidin-2-yl)methoxy)-1H-pyrrolo[3,2-c]quinolin-8-yl)propanenitrile], for which the pIC50 is at least 7.00 in experiment [1] and 6.00 to 7.00 in experiment [2].
